Where a name gives a salt, the structure may show the parent alone.
Assays:
Assay type in all cases: in vivo
[1] = tested on: mild to moderate AD patients; conditions: 0.3 or 1.0 mg/d for 28 days, in addition to donepezil or rivastigmine; domains of non-verbal learning, memory, executive function
Experimental: The safety and efficacy of (R)-7-chloro-N-(quinuclidin-3-yl)benzo[b]thiophene-2-carboxamide HCl salt was assessed in a Phase 1b study of 48 mild to moderate AD patients 60-80 years of age, on stable donepezil (5 or 10 mg/day) or rivastigmine (6-12 mg/day administered as a twice daily dose, i.e., 3 or 6 mg per dose).
Patients were dosed with placebo or two different doses of (R)-7-chloro-N-(quinuclidin-3-yl)benzo[b]thiophene-2-carboxamide (0.3 or 1.0 mg/d) for 28 days. Safety was evaluated by adverse events, ECG, and clinical laboratory measures. Cognitive effects were measured by CogState computerized cognitive testing and a subset of NTB scales (category fluency, Trails A and B).

[2] = tested on: 5-month-old male Wistar rats; experiment: Object recognition task after scopolamine treatment; conditions: for d2 difference from zero (one-sample t-tests) / effect on scopolamine-induced object memory dysfunction (comparison with scopolamine alone): present study; for d2 difference from zero (one-sample t-tests) / effect on scopolamine-induced object memory dysfunction (comparison with scopolamine alone) / Mean values (±SEM) of the indices of discrimination (d2) between the new and familiar objects: EVP-6124 0.03 mg/kg p.o., donepezil 0.1 mg/kg p.o., scopolamine 0.1 mg/kg i.p., 1 h delay; for Mean values (±SEM) of the indices of discrimination (d2) between the new and familiar objects: all 30 min before T1, n = 23
From the text: The object recognition task allows the assessment of consolidation of (object) information into memory (Ennaceur and Delacour, 1988; Prickaerts et al., 1997). In this task a rat is given two trials. In the first trial the rat is put into an arena in which two identical objects are placed. Usually, a rate will inspect the two objects for a certain amount of time. After a certain delay, the rat is given a second trial. In this trial the rat is again placed in the same arena but one of the objects has been replaced by a novel object. Similar to the first trial the rat again explores the two objects. The amount of time exploring each object is recorded in order to determine whether the rat spent a different amount of time exploring the two objects. On basis of this scoring the memory performance can be determined.
All drugs were given 30 minutes before the first trial.
All experimental procedures were approved by the local ethical committee of the Maastricht University for animal experiments and met governmental guidelines. Twenty-four 5-month-old male Wistar rats (Harlan, The Netherlands) were used (average body weights: 465 g). […] The animals were individually housed in standard type 3 Makrolon cages on sawdust bedding in an air-conditioned room (about 20° C.). They were kept under a 12/12-hour light/dark cycle (lights on from 19.00 to 7.00 h) and had free access to food and water. Rats were housed in the same room as where the animals were tested. A radio, which was playing softly, provided background noise in the room. All testing was done between 9.00 and maximally 18.00 h.
EVP-6124 was dissolved in H2O. The solution was prepared daily and tested at a dose of 0.03 mg/kg p.o. (injection volume 2 ml/kg). […] Donepezil was dissolved in saline. The solution was prepared daily and tested at a dose of 0.1 mg/kg p.o. (injection volume 2 ml/kg). Administration was always 30 min before trial 1 immediately after (R)-7-chloro-N-(quinuclidin-3-yl)benzo[b]thiophene-2-carboxamide.
Subsequently donepezil, (R)-7-chloro-N-(quinuclidin-3-yl)benzo[b]thiophene-2-carboxamide and the combination of both were tested (n=8 per condition per day of testing). All rats were treated once with each dose condition. […] The experimentator was unaware of the condition/drugs being tested.
The object recognition test was performed as described elsewhere (Ennaceur and Delacour, 1988). The apparatus consisted of a circular arena, 83 cm in diameter. Half of the 40 cm high wall was made of gray polyvinyl chloride, the other half of transparent polyvinyl chloride. The light intensity was equal in the different parts of the apparatus. Two objects were placed in a symmetrical position about 10 cm away from the gray wall. Each object was available in triplicate. The objects were: 1) a cone consisting of a gray polyvinyl chloride base (maximal diameter 18 cm) with a collar on top made of brass (total height 16 cm), 2) a standard 1 l brown transparent glass bottle (diameter 10 cm, height 22 cm) filled with water, 3) a massive metal cube (10.0×5.0×7.5 cm) with two holes (diameter 1.9 cm), and 4) a massive aluminum cube with a tapering top (13.0×8.0×8.0 cm). A rat could not displace the objects. Fluorescent red tubes and a light bulb provided a constant illumination of about 20 lux on the floor of the apparatus.
A testing session comprised two trials. The duration of each trial was 3 min. During the first trial (T1) the apparatus contained two identical objects (samples). A rat was always placed in the apparatus facing the wall at the middle of the front (transparent) segment. After the first exploration period the rat was put back in its home cage.

[3] = tested on: 5-month-old male Wistar rats; experiment: as above; conditions: previous study; for effect on object memory deficit induced by scopolamine: scopolamine 0.1 mg/kg i.p.

Structure (SMILES)	cognitive function [1]	d2 difference from zero (one-sample t-tests) [2]	effect on scopolamine-induced object memory dysfunction (comparison with scopolamine alone) [2]	Mean values (±SEM) of the indices of discrimination (d2) between the new and familiar objects [2]	effect on object memory deficit induced by scopolamine ([3]; 0.03 mg/kg p.o.)	effect on object memory deficit induced by scopolamine ([3]; 0.3 mg/kg p.o.)	effect on scopolamine-induced object memory deficit ([3]; 0.1 mg/kg donepezil)	effect on scopolamine-induced object memory deficit ([3]; 0.3 mg/kg donepezil p.o.)	memory of the familiar object after 1 h delay interval ([2]; scopolamine 0.1 mg/kg i.p. alone)
O=C(N[C@H]1CN2CCC1CC2)c1cc2cccc(Cl)c2s1 [EVP-6124, (R)-7-chloro-N-(quinuclidin-3-yl)benzo[b]thiophene-2-carboxamide]	showed an increase in cognitive function	not different from zero	did not improve the memory	0.00 (0.05)	had no effect	completely attenuated	–	–	–
COc1cc2c(cc1OC)C(=O)C(CC1CCN(Cc3ccccc3)CC1)C2 (centres unmarked) [donepezil, 1-benyzl-4-[(5,6-dimethoxy-1-indanon)-2-yl]methylpiperidine monohydrochloride]	–	not different from zero	did not improve the memory	−0.02 (0.05)	–	–	had no effect	attenuated	–
CN1[C@@H]2C[C@@H](OC(=O)[C@H](CO)c3ccccc3)C[C@H]1[C@@H]1O[C@@H]12 [scopolamine]	–	no difference	–	0.02 (0.07)	–	–	–	–	no more memory of the familiar object was found

Reference: patent US20150126546A1, “Treatment of Cognitive Disorders with Certain Alpha-7 Nicotinic Acid Receptors in Combination with Acetylcholinesterase Inhibitors” (Forum Pharmaceuticals, Inc., priority 2009, published 2015)
